{"source": "patent US9409880B2", "about": "“Modulators of TLR3/dsRNA complex and uses thereof” (The Regents of the University of Colorado, a body corporate, priority 2011, dated 2016)", "key": {"Cyp2C19": {"biological_target": "T1, Cyp2C19 (Homo sapiens, UniProt P33261)", "T1 construct": "tissue Apredica (testing lab); host or cells: microsomes (subcellular fractions)", "T1 sequence (P33261 whole entry)": "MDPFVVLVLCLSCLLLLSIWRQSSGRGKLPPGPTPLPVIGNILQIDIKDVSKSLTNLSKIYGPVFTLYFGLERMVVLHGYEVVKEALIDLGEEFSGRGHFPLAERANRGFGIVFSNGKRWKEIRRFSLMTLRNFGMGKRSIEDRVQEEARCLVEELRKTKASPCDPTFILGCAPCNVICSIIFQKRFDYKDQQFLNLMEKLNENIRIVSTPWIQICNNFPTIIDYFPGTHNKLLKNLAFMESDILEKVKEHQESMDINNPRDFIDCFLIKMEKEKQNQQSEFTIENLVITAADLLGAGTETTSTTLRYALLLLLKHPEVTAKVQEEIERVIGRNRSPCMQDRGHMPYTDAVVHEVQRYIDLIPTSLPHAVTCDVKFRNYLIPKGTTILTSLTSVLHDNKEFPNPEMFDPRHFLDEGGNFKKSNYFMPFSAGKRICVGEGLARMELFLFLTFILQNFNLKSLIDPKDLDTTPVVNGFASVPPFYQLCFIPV", "experiment": "Cytochrome P450 toxicity assay", "format": "in vitro ADME", "details": "25 μM and 50 μM; compared to known inhibitor ticlopidine", "protocol": "(§1) Test agent was incubated (two wells per condition) with microsomes at 37° C. Control incubations containing vehicle or reference inhibitors were run along side the test agents. The final assay contained test agent, probe substrates at the indicated concentration, 2 mM NADPH, 3 mM MgCl2 in 50 mM potassium phosphate buffer, pH 7.4. The final microsomal concentration was 0.5 mg/mL. The maximum solvent concentration in the final assay was ≦0.5% to minimize the inhibition of Cyps by solvent. NADPH was added last to start the assay. At the end of ten minutes incubation, the assay was stopped by the addition of acetonitrile containing internal standard, the samples were centrifuged, and the amount of probe metabolite in the supernatant was determined by LC/MS/MS. (Testing was done by Apredica, Watertown, Mass. using subcellular fractions)"}, "Cyp1A2": {"biological_target": "T2, Cyp1A2 (Homo sapiens, UniProt P05177)", "T2 construct": "tissue Apredica (testing lab); host or cells: microsomes (subcellular fractions)", "T2 sequence (P05177 1-516)": "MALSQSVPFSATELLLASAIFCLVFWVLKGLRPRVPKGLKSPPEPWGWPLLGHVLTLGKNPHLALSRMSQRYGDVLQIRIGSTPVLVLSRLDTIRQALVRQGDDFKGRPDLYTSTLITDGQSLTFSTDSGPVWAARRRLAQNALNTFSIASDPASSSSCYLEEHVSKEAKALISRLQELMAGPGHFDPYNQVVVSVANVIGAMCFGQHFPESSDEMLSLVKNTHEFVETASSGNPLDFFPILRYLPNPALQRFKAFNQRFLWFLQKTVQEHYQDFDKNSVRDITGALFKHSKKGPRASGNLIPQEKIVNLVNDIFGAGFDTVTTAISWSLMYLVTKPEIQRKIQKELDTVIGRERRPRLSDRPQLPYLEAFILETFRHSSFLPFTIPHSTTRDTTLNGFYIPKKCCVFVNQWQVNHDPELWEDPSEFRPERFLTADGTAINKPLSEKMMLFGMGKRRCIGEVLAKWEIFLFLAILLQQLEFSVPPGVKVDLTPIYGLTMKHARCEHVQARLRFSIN", "experiment": "Cytochrome P450 toxicity assay", "format": "in vitro ADME", "details": "25 μM and 50 μM; compared to known inhibitor aNF", "protocol": "as §1"}, "Cyp3A4": {"biological_target": "T3, Cyp3A4 (Homo sapiens, UniProt P08684)", "T3 construct": "tissue Apredica (testing lab); host or cells: microsomes (subcellular fractions)", "T3 sequence (P08684 whole entry)": "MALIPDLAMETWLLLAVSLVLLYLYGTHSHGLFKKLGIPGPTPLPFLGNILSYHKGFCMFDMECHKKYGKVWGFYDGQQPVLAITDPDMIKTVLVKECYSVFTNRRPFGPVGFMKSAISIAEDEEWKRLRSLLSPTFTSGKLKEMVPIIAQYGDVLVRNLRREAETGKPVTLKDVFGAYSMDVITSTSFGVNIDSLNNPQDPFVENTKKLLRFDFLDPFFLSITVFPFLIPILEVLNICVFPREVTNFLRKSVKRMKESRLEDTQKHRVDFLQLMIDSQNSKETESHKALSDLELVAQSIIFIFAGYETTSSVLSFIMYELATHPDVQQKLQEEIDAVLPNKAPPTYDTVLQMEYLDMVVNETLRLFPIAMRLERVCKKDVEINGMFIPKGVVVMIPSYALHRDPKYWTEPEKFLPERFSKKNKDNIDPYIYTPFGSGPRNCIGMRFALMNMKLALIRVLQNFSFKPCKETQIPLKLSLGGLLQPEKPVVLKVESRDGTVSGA", "experiment": "Cytochrome P450 toxicity assay", "format": "in vitro ADME", "details": "25 μM and 50 μM; compared to known inhibitor ketoconazole", "protocol": "as §1"}, "Cyp2D6": {"biological_target": "T4, Cyp2D6 (Homo sapiens, UniProt P10635)", "T4 construct": "tissue Apredica (testing lab); host or cells: microsomes (subcellular fractions)", "T4 sequence (P10635 whole entry)": "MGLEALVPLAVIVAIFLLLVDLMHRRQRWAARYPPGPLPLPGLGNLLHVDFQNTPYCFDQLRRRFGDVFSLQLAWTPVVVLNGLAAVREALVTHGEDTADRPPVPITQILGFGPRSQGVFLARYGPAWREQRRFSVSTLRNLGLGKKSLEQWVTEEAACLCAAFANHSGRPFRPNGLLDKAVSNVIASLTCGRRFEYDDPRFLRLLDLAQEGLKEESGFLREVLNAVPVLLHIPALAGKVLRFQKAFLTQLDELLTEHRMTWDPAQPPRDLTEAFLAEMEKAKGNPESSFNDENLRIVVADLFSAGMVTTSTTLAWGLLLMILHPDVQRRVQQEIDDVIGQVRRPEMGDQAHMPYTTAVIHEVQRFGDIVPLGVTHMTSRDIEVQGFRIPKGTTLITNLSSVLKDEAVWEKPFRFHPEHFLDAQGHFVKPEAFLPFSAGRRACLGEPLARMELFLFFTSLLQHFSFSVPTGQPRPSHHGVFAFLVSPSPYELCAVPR", "experiment": "Cytochrome P450 toxicity assay", "format": "in vitro ADME", "details": "25 μM and 50 μM; compared to known inhibitor quinidine", "protocol": "as §1"}, "TLR7": {"biological_target": "T5, TLR7 (Mus musculus, UniProt P58681)", "T5 construct": "endogenous in cells; host or cells: RAW 264.7", "T5 sequence (P58681 27-1050)": "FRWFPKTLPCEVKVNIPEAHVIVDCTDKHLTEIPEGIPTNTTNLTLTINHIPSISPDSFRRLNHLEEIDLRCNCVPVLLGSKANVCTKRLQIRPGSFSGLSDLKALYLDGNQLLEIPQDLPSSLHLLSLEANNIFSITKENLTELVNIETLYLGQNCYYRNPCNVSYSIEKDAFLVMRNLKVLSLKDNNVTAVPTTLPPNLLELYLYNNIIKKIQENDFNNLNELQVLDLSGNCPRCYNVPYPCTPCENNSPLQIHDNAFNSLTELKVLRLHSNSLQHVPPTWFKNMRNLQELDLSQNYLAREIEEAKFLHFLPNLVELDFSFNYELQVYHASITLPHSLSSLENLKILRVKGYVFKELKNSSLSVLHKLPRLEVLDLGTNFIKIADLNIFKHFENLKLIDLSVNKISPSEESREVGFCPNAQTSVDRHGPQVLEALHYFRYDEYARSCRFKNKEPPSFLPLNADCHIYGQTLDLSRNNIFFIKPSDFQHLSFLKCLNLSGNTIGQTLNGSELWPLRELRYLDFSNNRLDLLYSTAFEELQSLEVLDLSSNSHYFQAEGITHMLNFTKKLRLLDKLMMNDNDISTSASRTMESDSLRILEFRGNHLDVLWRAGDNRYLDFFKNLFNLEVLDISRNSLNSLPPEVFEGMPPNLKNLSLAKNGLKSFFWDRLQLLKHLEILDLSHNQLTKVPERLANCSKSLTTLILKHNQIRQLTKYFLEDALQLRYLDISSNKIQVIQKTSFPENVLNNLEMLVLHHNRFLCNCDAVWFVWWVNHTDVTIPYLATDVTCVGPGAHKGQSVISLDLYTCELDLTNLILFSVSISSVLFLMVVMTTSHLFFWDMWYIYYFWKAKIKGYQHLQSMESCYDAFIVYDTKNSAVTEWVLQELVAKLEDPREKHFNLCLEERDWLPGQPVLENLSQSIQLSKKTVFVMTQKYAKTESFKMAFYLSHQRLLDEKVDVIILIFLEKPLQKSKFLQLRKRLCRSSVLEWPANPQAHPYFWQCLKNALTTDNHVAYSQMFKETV", "experiment": "RAW264.7 cell nitric oxide TLR selectivity assay (R848)", "format": "cell-based", "details": "27 μM"}, "[1]": {"tested_on": "TNF-α and IL-1β production", "experiment": "Cytokine-specific ELISA in RAW 264.7 cells", "format": "cell-based, Mouse", "details": "27 μM compound", "protocol": "A secondary cell assay was used to confirm that compound 4a inhibits the downstream signaling transduction mediated by the formation of the TLR3/dsRNA complex. In addition to TLR3 signaling suppression, the release of the proinflammatory cytokines, TNF-α and IL-1β, were also studied.\nRAW cells were planted in 6-well plates at 1,000,000 cells per well with 3 mL of medium (RPMI 1640 medium, supplemented with 10% FBS, penicillin (100 U/mL) and streptomycin ([…])) and grown for 24 h at 37° C. in a 5% CO2 humidified incubator. After 24 h, non-adherent cells and media were removed and replaced with fresh RPMI 1640 medium (3 mL/well). […] In additionally wells, one well was treated with only 4a (27 μM) and the other was treated with nothing. Plates were then incubated for an additional 24 h. […] Approximately 400 μL of supernatant were collected into new tubes, frozen at −80° C. until ready for cytokine measurement. The production of the cytokine interleukin-1β (IL-1β) and TNF-α was quantified with enzyme-linked immunosorbent assays (ELISA) using cytokine-specific capture antibodies, biotinylated monoclonal detection antibodies, and recombinant human cytokine standards according to commercially available ELISA kits from R&D Systems. The cytokine level in each sample was determined in duplicate."}}, "data": [{"smiles": "O=C(N[C@H](Cc1ccccc1)C(=O)O)c1sc2cc(F)ccc2c1Cl", "note": "[Compound 4a, (R)-2-(3-chloro-6-fluorobenzo[b]thiophene-2-carboxamido)-3-phenylpropanoic acid]", "values": [{"measurement": "toxicity to Cyp2C19", "setting": "Cyp2C19", "value": "low toxicity"}, {"measurement": "toxicity to Cyp1A2", "setting": "Cyp1A2", "value": "low toxicity"}, {"measurement": "toxicity to Cyp3A4", "setting": "Cyp3A4", "value": "low toxicity"}, {"measurement": "toxicity to Cyp2D6", "setting": "Cyp2D6", "value": "low toxicity"}, {"measurement": "effect on TLR7 signaling", "setting": "TLR7", "value": "without significantly affecting other TLRs"}, {"measurement": "IL-1β production", "setting": "[1]", "value": "inhibits"}, {"measurement": "TNF-α production", "setting": "[1]", "value": "inhibits"}]}]}
